Reference: PubChem BioAssay AID1053167 (Broad Institute, 2014)
Several values for one entry are separate records, joined by “and”; a condition that tells them apart may be missing. Equal values may be shown once. Activity calls are given as the source filed them. No rule for the calls is given here.

Tested on: not listed separately
Test: Vaccinia virus infected cells, stage specific inhibitors, dose response, confirmatory, dry powder (AID 1053167)
Details: Vaccinia virus infected cells, plate reader read-out; at 1 µM (top of the series)

Row | Structure (SMILES) | activity change, negative = inhibition
1 | C[C@H](O)C#Cc1ccc2c(c1)O[C@@H](CN(C)Cc1ccc(-c3ccccc3)cc1)[C@H](C)CN([C@@H](C)CO)S2(=O)=O | 6% (inactive)
2 | CO[C@H]1CN(C)C(=O)c2ccc(NC(=O)c3ccc(F)cc3)cc2OC[C@H](C)N(C(=O)c2ccc(F)cc2)C[C@@H]1C | 0% (inactive)

Same assay, conditions: Vaccinia virus infected cells, plate reader read-out; at 10 µM (top of the series)

Row | Structure (SMILES) | activity change, negative = inhibition
3 | CNC[C@@H]1Oc2cc(Br)ccc2S(=O)(=O)N([C@@H](C)CO)C[C@@H]1C | -1% (inactive)
4 | C[C@@H](O)C#Cc1ccc2c(c1)O[C@@H](CN(C)S(=O)(=O)c1ccc(-c3ccccc3)cc1)[C@@H](C)CN([C@@H](C)CO)S2(=O)=O | -14% (inactive)
5 | C[C@H](O)C#Cc1ccc2c(c1)O[C@@H](CN(C)Cc1ccc(-c3ccccc3)cc1)[C@@H](C)CN([C@H](C)CO)S2(=O)=O | 1% (inactive)
6 | C[C@H]1CN([C@@H](C)CO)S(=O)(=O)c2ccc(Br)cc2O[C@H]1CN(C)Cc1ccc(-c2ccccc2)cc1 | -19% (inactive)
7 | C[C@H](O)C#Cc1ccc2c(c1)O[C@@H](CN(C)Cc1ccc(-c3ccccc3)cc1)[C@@H](C)CN([C@@H](C)CO)S2(=O)=O | -4% (inactive)
8 | C[C@@H](O)C#Cc1ccc2c(c1)O[C@@H](CN(C)C(=O)c1ccc(-c3ccccc3)cc1)[C@@H](C)CN([C@@H](C)CO)S2(=O)=O | -22% (inactive)

Tested on: Vaccinia virus infected cells, plate reader read-out
Test: as above
Details: not given

Row | Structure (SMILES) | AC50
9 | C[C@H](O)C#Cc1ccc2c(c1)O[C@H](CN(C)Cc1ccc(-c3ccccc3)cc1)[C@@H](C)CN([C@@H](C)CO)S2(=O)=O | 5700 nM
10 | C[C@H]1CN([C@@H](C)CO)S(=O)(=O)c2ccc(C#CC(C)(C)O)cc2O[C@H]1CN(C)Cc1ccc(-c2ccccc2)cc1 | > 20000 nM (inactive)
11 | C[C@H]1CN([C@@H](C)CO)S(=O)(=O)c2ccc(-c3ccc(O)cc3)cc2O[C@H]1CN(C)Cc1ccc(-c2ccccc2)cc1 | > 20000 nM (inactive)
12 | C[C@@H](O)C#Cc1ccc2c(c1)O[C@@H](CN(C)Cc1ccccc1)[C@@H](C)CN([C@@H](C)CO)S2(=O)=O | 8730 nM
13 | C[C@@H]1CN([C@@H](C)CO)S(=O)(=O)c2ccc(C#C[C@@H](C)O)cc2O[C@@H]1CN(C)Cc1ccc(-c2ccccc2)cc1 | > 20000 nM (inactive)
14 | COc1ccc(-c2ccc(CN(C)C[C@@H]3Oc4cc(C#C[C@@H](C)O)ccc4S(=O)(=O)N([C@@H](C)CO)C[C@@H]3C)cc2)cc1 | 2200 nM
15 | Cc1ccccc1-c1ccc(CN(C)C[C@@H]2Oc3cc(C#C[C@@H](C)O)ccc3S(=O)(=O)N([C@@H](C)CO)C[C@@H]2C)cc1 | 1160 nM
16 | C[C@@H](O)C#Cc1ccc2c(c1)O[C@@H](CN(C)Cc1ccc(-c3ccc(Cl)cc3)cc1)[C@@H](C)CN([C@@H](C)CO)S2(=O)=O | 1210 nM
17 | Cc1ccc(-c2ccc(CN(C)C[C@@H]3Oc4cc(C#C[C@@H](C)O)ccc4S(=O)(=O)N([C@@H](C)CO)C[C@@H]3C)cc2)cc1 | 1480 nM
18 | C[C@H](O)C#Cc1ccc2c(c1)O[C@H](CN(C)Cc1ccc(-c3ccccc3)cc1)[C@H](C)CN([C@H](C)CO)S2(=O)=O | > 20000 nM (inactive)
19 | C[C@@H](O)C#Cc1ccc2c(c1)O[C@@H](CN(C)Cc1ccc(-c3cccc(Cl)c3)cc1)[C@@H](C)CN([C@@H](C)CO)S2(=O)=O | 2560 nM
20 | C[C@@H]1CN([C@H](C)CO)S(=O)(=O)c2ccc(C#C[C@@H](C)O)cc2O[C@H]1CN(C)Cc1ccc(-c2ccccc2)cc1 | 7160 nM
21 | C[C@@H](O)C#Cc1ccc2c(c1)O[C@@H](CN(C)Cc1ccc(-c3ccccc3)cc1)[C@@H](C)CN([C@@H](C)CO)S2(=O)=O | 2940 nM and 3900 nM
22 | COc1ccccc1-c1ccc(CN(C)C[C@@H]2Oc3cc(C#C[C@@H](C)O)ccc3S(=O)(=O)N([C@@H](C)CO)C[C@@H]2C)cc1 | 2140 nM
23 | COc1cccc(-c2ccc(CN(C)C[C@@H]3Oc4cc(C#C[C@@H](C)O)ccc4S(=O)(=O)N([C@@H](C)CO)C[C@@H]3C)cc2)c1 | 2770 nM
24 | C[C@H](O)C#Cc1ccc2c(c1)O[C@H](CN(C)Cc1ccc(-c3ccccc3)cc1)[C@@H](C)CN([C@H](C)CO)S2(=O)=O | > 20000 nM (inactive)
25 | C[C@@H](O)C#Cc1ccc2c(c1)O[C@@H](CN(C)Cc1ccc(-c3ccccc3Cl)cc1)[C@@H](C)CN([C@@H](C)CO)S2(=O)=O | 1340 nM
26 | Cc1cccc(-c2ccc(CN(C)C[C@@H]3Oc4cc(C#C[C@@H](C)O)ccc4S(=O)(=O)N([C@@H](C)CO)C[C@@H]3C)cc2)c1 | 1740 nM
27 | COc1ccc(-c2ccc3c(c2)O[C@@H](CN(C)Cc2ccc(-c4ccccc4)cc2)[C@@H](C)CN([C@@H](C)CO)S3(=O)=O)cc1 | > 20000 nM (inactive)
28 | C[C@H](O)C#Cc1ccc2c(c1)O[C@@H](CN(C)Cc1ccc(-c3ccccc3)cc1)[C@H](C)CN([C@H](C)CO)S2(=O)=O | > 20000 nM (inactive)
